# According to ChEMBL document CHEMBL1126767, “Three-dimensional quantitative structure-activity relationship of angiotesin-converting enzyme and thermolysin inhibitors. II. A comparison of CoMFA models incorporating molecular orbital fields and desolvation free energies based on active-analog and complementary-receptor-field alignment rules” (J Med Chem, 1993):
# Square brackets hold non-standard residues; d marks the D form. Peptide text beside a SMILES is read from it. ξ: configuration not given here. ξC = NC(CS)C(=O)O; Mpa = O=C(O)CCS
# Target: Angiotensin-converting enzyme (Homo sapiens, UniProt P12821)
# Test: Inhibitory activity against angiotensin converting enzyme (ACE)
# Assay type: functional
row,Structure (SMILES),IC50 [µM]
1,O=C(O)[C@@H]1CCCN1C(=O)CP(=O)(O)O,8.32
2,NCCCC[C@H](OP(=O)(O)CCCCc1ccccc1)C(=O)N1C[C@H](c2ccccc2)C[C@H]1C(=O)O,0.339
3,O=C(O)[C@H]1CCCN1C(=O)CCS,1820
4,O=C(O)CCC(=O)NCC(=O)O,2000
5,O=C(O)[C@@H]1C=CCN1C(=O)CCS,0.646
6,O=C(O)CCc1cc(O)c2n(c1=O)[C@H](C(=O)O)CC2,0.457
7,O=C(CCS)N[C@@H](CS)C(=O)O,67.6
8,O=C(O)[C@@H]1CCCN1CCCS,240
9,CC(C)C[C@H](NC(=O)CCC(=O)O)C(=O)O,617
10,O=C(NC(CCc1ccccc1)P(=O)(O)CC(=O)N1CCC[C@H]1C(=O)O)c1ccccc1 (stereo partly specified),0.0724
11,N[C@@H](Cc1ccccc1)C(=O)N[C@H](CCC(=O)N1[C@H](C(=O)O)C[C@@H]2CCCC[C@@H]21)C(=O)O,0.219
12,O=C(O)CCC(=O)N1CCC[C@H]1C(=O)O,33.1
13,NCCCCC(NC(=O)OCc1ccccc1)C(=O)N[C@H](CCC(=O)N1c2ccccc2C[C@H]1C(=O)O)C(=O)O (stereo partly specified),2.51
14,CC(C)[C@H](NC(=O)CCC(=O)O)C(=O)O,1100
15,NC(Cc1ccccc1)C(=O)N[C@H](CCC(=O)N1[C@H](C(=O)O)C[C@@H]2CCCC[C@@H]21)C(=O)O (stereo partly specified),0.1
16,O=C(CS)N[C@@H](Cc1c[nH]cn1)C(=O)O,257
17,O=C(CCS)N[C@@H](Cc1cnc[nH]1)C(=O)O,229
18,CC(C)(C)OC(=O)[C@@H]1CCCN1C(=O)CCS,38.9
19,O=C(CCS)N[C@@H](Cc1ccccc1)C(=O)O,0.427
20,O=C(CS)N[C@@H](Cc1c[nH]c2ccccc12)C(=O)O,0.759

row,Structure (SMILES),IC50 [µM]
1,O=C(O)[C@@H]1CCCN1C(=O)CCP(=O)(O)O,47.9
2,O=C(O)[C@@H]1CCC(=O)N1CCCS,646
3,CC(C)(S)C(=O)N[C@@H](CC(=O)O)C(=O)O,3470
4,C[C@H](NCC(=O)O)C(=O)N1CCC[C@H]1C(=O)O,2.4
5,C[C@H](NC(=O)CCC(=O)O)C(=O)O,1350
6,O=C(O)CNC(=O)CCS,2.82
7,CN(CC(=O)O)C(=O)CCS,3.02
8,COP(=O)(O)C(CCc1ccccc1)N[C@@H](C)C(=O)N1CCC[C@H]1C(=O)O (stereo partly specified),0.437
9,C[C@H](NC(=O)CCS)C(=O)O,0.851
10,C[C@H](NP(=O)(O)O)C(=O)N1CCC[C@H]1C(=O)O,0.776
11,C[C@H](CCC(=O)O)C(=O)N1CCC[C@H]1C(=O)O,4.9
12,C[C@H](CC(=O)O)C(=O)N1CCC[C@H]1C(=O)O,10.2
13,CC(C)[C@H](NC(=O)CCS)C(=O)O,1.58
14,C[C@@]1(CCS)C(=O)N2CC=C[C@@H](C(=O)O)N2C1=O,0.1
15,CC[C@@H](C)[C@H](C)C(=O)N[C@@H](Cc1ccccc1)C(=O)O,933
16,O=C(O)CCCCCS,1100
17,CCC(C)[C@H](NC(=O)CCC(=O)O)C(=O)O (stereo partly specified),1050
18,C[C@H](NC(CCN)C(=O)O)C(=O)N1CCC[C@H]1C(=O)O (stereo partly specified),0.324
19,O=C(O)CCC(=O)N[C@@H](Cc1ccccc1)C(=O)O,550
20,C[C@H](NCCCc1ccccc1)C(=O)N1CCC[C@H]1C(=O)O,5.75

row,Structure (SMILES),IC50 [µM]
1,C[C@H](NC(CCc1ccccc1)C(N)=O)C(=O)N1CCC[C@H]1C(=O)O (stereo partly specified),25.7
2,Cc1ccc(N(CC(=O)O)C(=O)C(C)N)cc1 (stereo unspecified),2.57
3,O=C(O)C[C@H](NC(=O)CS)C(=O)O,77.6
4,O=C(O)CCNC(=O)CCS,490
5,O=C(CS)N[C@@H](CS)C(=O)O,19.1
6,O=C(N[C@H](CCC(=O)N1CCC[C@H]1C(=O)O)C(=O)O)C1CCCN1C(=O)OCc1ccccc1 (stereo partly specified),2.51
7,CN(C(=O)CCS)[C@@H](Cc1ccccc1)C(=O)O,30.9
8,O=C(CCS)OC(Cc1ccccc1)C(=O)O (stereo unspecified),0.708
9,O=C(O)CCC(=O)CCS,2.4
10,O=C(O)[C@@H]1C=CCn2c(=O)n(CS)c(=O)n21,0.708
11,CC(C)(S)C(=O)N[C@@H](Cc1c[nH]c2ccccc12)C(=O)O,38
12,NCC(=O)N[C@@H](Cc1ccccc1)C(=O)O (H-Gly-Phe-OH),603
13,CC[C@H](C)[C@H](N)C(=O)N1CCC[C@H]1C(=O)O (H-Ile-Pro-OH),129
14,CC(C)[C@H](N)C(=O)N1CCC[C@H]1C(=O)O (H-Val-Pro-OH),417
15,C[C@H](NC(=O)CCS)C(=O)N1CCC[C@H]1C(=O)O ([Mpa]-Ala-Pro-OH),2.57
16,CC(CS)C(=O)N[C@@H](Cc1c[nH]c2ccccc12)C(=O)O (stereo in doubt),33.1
17,O=C(O)[C@@H]1CCCN1C(=O)CCS (stereo in doubt; 34),0.2
18,C[C@@H](N)C(=O)N[C@@H](Cc1ccccc1)C(=O)O (stereo in doubt; 52),191
19,C[C@@H](N)C(=O)N[C@@H](Cc1ccccc1)C(=O)O (stereo in doubt; 53),52.5
20,O=C(O)[C@@H]1CCCN1C(=O)CCS (stereo in doubt; 56),17

# Next, values leading:
row,IC50 [µM],Structure (SMILES)
1,0.00398,O=C(O)[C@@H]1CC2(CN1C(=O)CP(=O)(O)CCCCc1ccccc1)SCCS2
2,0.00107,NCCCC[C@H](OP(=O)(O)CCCCc1ccccc1)C(=O)N(CC(=O)O)c1ccccc1
3,0.000295,NCCCC[C@H](OP(=O)(O)CCCCc1ccccc1)C(=O)N1c2ccccc2C[C@H]1C(=O)O
4,0.000891,NCCCC[C@H](OP(=O)(O)CCCCc1ccccc1)C(=O)N1C[C@@H](Cc2ccccc2)C[C@H]1C(=O)O
5,0.000295,NCCCC[C@H](OP(=O)(O)CCCCc1ccccc1)C(=O)N(CC(=O)O)C1CCCCC1
6,0.00049,NCCCC[C@H](OP(=O)(O)CCCCc1ccccc1)C(=O)N1C[C@@H](C2CCCCC2)C[C@H]1C(=O)O
7,0.00324,NCCCC[C@H](OP(=O)(O)CCCCc1ccccc1)C(=O)N1C[C@H](C2CCCCC2)C[C@H]1C(=O)O
8,0.000525,CS[C@@H]1C[C@@H](C(=O)O)N(C(=O)[C@H](CCCCN)OP(=O)(O)CCCCc2ccccc2)C1
9,0.00219,NCCC[C@H](NC(CCc1ccccc1)C(=O)O)C(=O)N1CCC[C@H]1C(=O)O (stereo partly specified)
10,0.00708,C[C@H](NP(=O)(O)CCc1ccccc1)C(=O)N1CCC[C@H]1C(=O)O
11,0.001,O=C(O)CCn1c(=O)n2n(c1=O)[C@H](C(=O)O)C=CC2
12,0.01,O=C(NC(Cc1ccccc1)CP(=O)(O)CC(=O)N1CCC[C@H]1C(=O)O)c1ccccc1 (stereo partly specified)
13,0.00288,C[C@H](NC(CCCNC(=O)OCc1ccccc1)C(=O)O)C(=O)N1CCC[C@H]1C(=O)O (stereo partly specified)
14,0.00302,C[C@@H]1CCCC(NC(CCc2ccccc2)C(=O)O)C(=O)N1CC(=O)O (stereo partly specified)
15,0.00646,CCN(C[C@H](CCc1ccccc1)C(=O)O)C(=O)N1Cc2ccccc2C[C@H]1C(=O)O
16,0.0525,CC(C(=O)O)C1CCCCC(CS)C1=O (stereo unspecified)
17,0.00288,C[C@H](NC(C(=O)O)C1CCCN1C(=O)c1ccccc1)C(=O)N1CCC[C@H]1C(=O)O (stereo partly specified)
18,0.000871,NCCCC[C@H](OP(=O)(O)CCCCc1ccccc1)C(=O)N1C[C@H](O)C[C@H]1C(=O)O
19,0.000631,NCCCC[C@H](OP(=O)(O)CCCCc1ccccc1)C(=O)N1CC2(C[C@H]1C(=O)O)SCCS2
20,0.000525,NCCCC[C@H](OP(=O)(O)CCCCc1ccccc1)C(=O)N1C[C@@H](Sc2ccccc2)C[C@H]1C(=O)O
21,0.000132,NCCCC[C@H](OP(=O)(O)CCCCc1ccccc1)C(=O)N1C[C@@H](c2ccccc2)C[C@H]1C(=O)O
22,0.0158,NCCCC[C@H](OP(=O)(O)CCCCc1ccccc1)C(=O)N1C[C@@H](O)C[C@H]1C(=O)O
23,0.000115,NCCCC[C@H](OP(=O)(O)CCCCc1ccccc1)C(=O)N(CC(=O)O)c1ccc2c(c1)OCO2

row,IC50 [µM],Structure (SMILES)
1,0.000288,COc1ccc(N(CC(=O)O)C(=O)[C@H](CCCCN)OP(=O)(O)CCCCc2ccccc2)cc1OC
2,0.00479,C[C@H](CC(CCc1ccccc1)C(=O)O)C(=O)N1c2ccccc2C[C@H]1C(=O)O (stereo partly specified)
3,0.012,NCCCCC(N)C(=O)N[C@H](CCC(=O)N1[C@H](C(=O)O)C[C@@H]2CCCC[C@@H]21)C(=O)O (stereo partly specified)
4,0.000776,NCCCC[C@H](OP(=O)(O)CCCCc1ccccc1)C(=O)N1C[C@H](Sc2ccccc2)C[C@H]1C(=O)O
5,0.0646,O=C(O)[C@@H]1CCCN1C(=O)C1CCCC1S (stereo partly specified)
6,0.00191,CS[C@H]1C[C@@H](C(=O)O)N(C(=O)[C@H](CCCCN)OP(=O)(O)CCCCc2ccccc2)C1
7,0.00257,CSC1(SC)C[C@@H](C(=O)O)N(C(=O)[C@H](CCCCN)OP(=O)(O)CCCCc2ccccc2)C1
8,0.0562,O=C(O)C(CCc1ccccc1)N[C@H]1CCN2CCC[C@@H](C(=O)O)N2C1=O (stereo partly specified)
9,0.0501,C[C@@H](NC(=O)C(S)Cc1ccccc1)C(=O)N1CCC[C@H]1C(=O)O (stereo partly specified)
10,0.0398,C[C@H](NC(CCc1ccccc1)C(=O)O)C(=O)N(CC(=O)O)C1Cc2ccccc2C1 (stereo partly specified)
11,0.00219,C[C@H](NC(CCc1ccccc1)C(=O)O)C(=O)N1CC2CCCCC2[C@H]1C(=O)O (stereo partly specified)
12,0.0151,O=C(N[C@H](CCC(=O)N1[C@H](C(=O)O)C[C@@H]2CCCC[C@@H]21)C(=O)O)C1CCCN1C(=O)OCc1ccccc1 (stereo partly specified)
13,0.049,O=C(O)[C@@H]1CCCN1C(=O)C1CCC1S (stereo partly specified)
14,0.000251,O=C(NC(Cc1ccccc1)C(=O)N[C@H](CCC(=O)N1c2ccccc2C[C@H]1C(=O)O)C(=O)O)OCc1ccccc1 (stereo partly specified)
15,0.00282,C[C@H](NC(CCc1ccc(O)cc1)C(=O)O)C(=O)N1CCC[C@H]1C(=O)O (stereo partly specified)
16,0.00525,C[C@H](NC(CCC(=O)Nc1ccccc1)C(=O)O)C(=O)N1CCC[C@H]1C(=O)O (stereo partly specified)
17,0.0407,C[C@H](NP(=O)(O)OCc1ccccc1)C(=O)N1CCC[C@H]1C(=O)O
18,0.0708,O=C(O)[C@@H]1CCCN2C(=O)C[C@@H](CS)C(=O)N12
19,0.0513,C[C@H](NC(CCc1ccccc1)P(=O)(O)O)C(=O)N1CCC[C@H]1C(=O)O (stereo partly specified)
20,0.000229,C[C@H](NC(CCC(=O)Nc1ccc(I)cc1)C(=O)O)C(=O)N1CCC[C@H]1C(=O)O (stereo partly specified)
21,0.0017,O=C(O)CN1C(=O)C(NC(CCc2ccccc2)C(=O)O)CCc2ccccc21 (stereo unspecified)
22,0.0631,NC(CS)C(=O)N1CCC[C@H]1C(=O)O (stereo partly specified) (H-[ξC]-Pro-OH)
23,0.0347,CC(CS)C(=O)N[C@@H](Cc1c[nH]c2ccccc12)C(=O)O (stereo in doubt; 30A)
